The values below are quoted from earlier work in PubChem BioAssay AID1259410 (Chemical Carcinogenesis Research Information System (CCRIS), 2018).

The test system of this data set is rodent tumor promotion studies, tumor incidence. As to the kind of experiment: CCRIS tumor promotion studies.

Regarding `C[C@]12CC[C@@H]3c4ccc(OS(=O)(=O)O)cc4CC[C@H]3[C@@H]1CCC2=O`, under “Carcinogen: 7,12-Dimethylbenz[a]anthrene, 57-97-6, Doses [Carcinogen]: 5 mg in corn oil, intragastric, once, Doses [Promoter]: 100 ng/ml in drinking water, study duration 20 wk, Route [Carcinogen]: Oral, Route [Promoter]: Oral, Species: Rat, Strain/Sex: Sprague-Dawley/Female (16/group)”, the outcome is given as “mammary gland: tumor”.

`CC(C)(c1cc(Br)c(O)c(Br)c1)c1cc(Br)c(O)c(Br)c1`: the outcome (Carcinogen: N-bis(2-hydroxypropyl)nitrosamine, 53609-64-6, Doses [Carcinogen]: 0.08 and 0.2% in drinking water for 4 wks at 7-10 wks of age, study duration to 39 wk of age, Doses [Promoter]: In utero (0.01, 0.1, or 1% in diet of dams) and then in drinking water of weaned offspring for 2 wk, Route [Carcinogen]: Oral, Route [Promoter]: In utero and in drinking water, Species: Rat, Strain/Sex: F344/Male (12-15/group)) is reported as “none found”. For `C[C@]12CCC(=O)C=C1CC[C@@H]1[C@@H]2CC[C@@]2(C)[C@H]1CC[C@]2(C)O`, under “Carcinogen: N-BIS(2-HYDROXYPROPYL)NITROSAMINE, 53609-64-6, Doses [Carcinogen]: 210 MG/100 G BW 1/WK FOR 2 WK, Doses [Promoter]: 0, 300 PPM IN DIET OF CASTRATED RATS BEGINNING POST CARCINOGEN TREATMENT AND CONTINUING FOR 28 WK (STUDY DURATION: 30 WK, Route [Carcinogen]: INTRAPERITONEAL, Route [Promoter]: ORAL, Species: RAT, Strain/Sex: WISTAR/MALE”, the outcome is given as “thyroid gland: adenoma or carcinoma”. For the molecule `CC(N)Cc1ccccc1` (stereo not drawn), the outcome (Carcinogen: BITTNER MAMMARY TUMOR VIRUS, Doses [Promoter]: 0, 0.4 MG/KG/D IN 1 ML/KG OF 0.9% SALINE FOR DURATION OF STUDY (STUDY DURATION: 730 D), Route [Promoter]: SUBCUTANEOUS, Species: MOUSE, Strain/Sex: C3H/FEMALE) is listed as “mammary gland: tumor”. Consider `CCCCCCCCCCCCCCCCCC(=O)O[C@@]12C[C@@H](C)[C@@]3(O)[C@@H](C=C(CO)C[C@]4(O)C(=O)C(C)=C[C@@H]34)[C@@H]1C2(C)C`, for which the outcome (Carcinogen: 7,12-DIMETHYLBENZ[A]ANTHRACENE, 57-97-6, Doses [Carcinogen]: 100 NMOL ONCE, Doses [Promoter]: 0, 100 NMOL 2/WK FOR 39 WK (STUDY DURATION: 39 WK), Route [Carcinogen]: DERMAL, Route [Promoter]: DERMAL, Species: MOUSE, Strain/Sex: NMRI) is on record as “skin: tumor”. For `C#C[C@]1(O)CC[C@H]2[C@@H]3CCc4cc(O)ccc4[C@H]3CC[C@@]21C`, the outcome reads like this: (Carcinogen: 3,2'-DIMETHYL-4-AMINOBIPHENYL, 13394-86-0, Doses [Carcinogen]: 100 MG/KG 1/WK FOR 20 WK, Doses [Promoter]: 0, 0.75 PPM IN DIET FOR DURATION OF STUDY (STUDY DURATION: 50 WK), Route [Carcinogen]: SUBCUTANEOUS, Route [Promoter]: ORAL, Species: HAMSTER, Strain/Sex: SYRIAN/FEMALE) “gallbladder: adenoma or adenocarcinoma”; (Carcinogen: 3,2'-DIMETHYL-4-AMINOBIPHENYL, 13394-86-0, Doses [Carcinogen]: 100 MG/KG 1/WK FOR 20 WK, Doses [Promoter]: 0, 0.75 PPM IN DIET FOR DURATION OF STUDY (STUDY DURATION: 50 WK), Route [Carcinogen]: SUBCUTANEOUS, Route [Promoter]: ORAL, Species: HAMSTER, Strain/Sex: SYRIAN/MALE) “gallbladder: adenoma or adenocarcinoma”; (Carcinogen: 7,12-DIMETHYLBENZ[A]ANTHRACENE (DMBA) [57-97-6]AND N-BIS(2-HYROXYPROPYL)NITROSOSAMINE (DHPN) [53609-64-6], Doses [Carcinogen]: DMBA-SINGLE DOSE OF 50 MG/KG BW AT 7 WKS OF AGE, DHPN- 0.2% IN WATER WKS 6-14 OF AGE (STUDY DURATION: 27 WKS FOR MALES;, Doses [Carcinogen]: DMBA-SINGLE DOSE OF 50 MG/KG BW AT 7 WKS OF AGE, DHPN- 0.2% IN WATER WKS 6-14 OF AGE (STUDY DURATION: 27 WKS FOR MALES;, Doses [Promoter]: 0, 0.2, 1% IN DIET (STUDY DURATION: 27 AND 36 WKS FOR MALES AND FEMALES RESPECTIVELY), Doses [Promoter]: 0, 0.2, 1% IN DIET (STUDY DURATION: 27 AND 36 WKS FOR MALES AND FEMALES RESPECTIVELY), Route [Carcinogen]: ORAL (DMBA, GAVAGE; DHPN, DRINKING WATER), Route [Promoter]: MATERNAL MILK TO 3 WKS OF AGE, DIET FROM WKS 3 TO 6 OF AGE, Species: RAT, Strain/Sex: F344/FEMALE, MALE) “negative”; (Carcinogen: DIETHYLNITROSAMINE, 55-18-5, Doses [Carcinogen]: 100 MG/KG ONCE, Doses [Promoter]: 0, 10 PPM (0.5 MG/KG/D) 2 MO POST CARCINOGEN DOSE AND CONTINUING FOR 8 MO (STUDY DURATION: 12 MO), Route [Carcinogen]: INTRAPERITONEAL, Route [Promoter]: ORAL, Species: RAT, Strain/Sex: CD-1/FEMALE) “liver: carcinoma/neoplastic nodules”; (Carcinogen: DIETHYLNITROSAMINE, 55-18-5, Doses [Carcinogen]: 100 MG/KG ONCE, Doses [Promoter]: 0, 10 PPM (0.5 MG/KG/D) 2 MO POST CARCINOGEN DOSE AND CONTINUING FOR 8 MO (STUDY DURATION: 12 MO), Route [Carcinogen]: INTRAPERITONEAL, Route [Promoter]: ORAL, Species: RAT, Strain/Sex: CD-1/MALE) “liver: carcinoma/neoplastic nodules”; (Carcinogen: DIETHYLNITROSAMINE, 55-18-5, Doses [Carcinogen]: 200 MG/KG ONCE, Doses [Promoter]: 0, 160-210 UG/KG BW DAILY FROM RELEASE PELLETS FOR 30 WK BEGINNING 2 WK POST CARCINOGEN DOSE (STUDY DURATION: 30 WK), Route [Carcinogen]: INTRAPERITONEAL, Route [Promoter]: SUBCUTANEOUS, Species: RAT, Strain/Sex: WISTAR/FEMALE) “liver: hepatocellular carcinoma”. Regarding `CC(C)C[C@H](NC(=O)[C@H](Cc1ccccc1)NC(=O)CNC(=O)CNC(=O)[C@@H](N)Cc1ccc(O)cc1)C(=O)O`, where the note is “Carcinogen: N-METHYL-N'-NITRO-N-NITROSOGUANIDINE, 70-25-7, Doses [Carcinogen]: 25 UG/ML IN DRINKING WATER FOR 25 WK, Doses [Promoter]: 0, 20 UG/KG 1/2 D BEGINNING POST CARCINOGEN TREATMENT AND CONTINUING FOR THE DURATION OF STUDY (STUDY DURATION: 52 WK), Route [Carcinogen]: ORAL, Route [Promoter]: SUBCUTANEOUS, Species: RAT, Strain/Sex: WISTAR/MALE”, the outcome was “stomach: adenocarcinoma”. Consider `ClC(Cl)=C(Cl)C(Cl)=C(Cl)Cl`, for which, where the note is “Carcinogen: N-ETHYL-N-HYDROXYETHYLNITROSAMINE, 13147-25-6, Doses [Carcinogen]: 0.1% IN DRINKING WATER FOR 2 WK, Doses [Promoter]: 0, 0.1% IN DIET FOR 30 WK BEGINNING POST CARCINOGEN TREATMENT (STUDY DURATION: 32 WK), Route [Carcinogen]: ORAL, Route [Promoter]: ORAL, Species: RAT, Strain/Sex: WISTAR/MALE”, the outcome is “kidney: renal cell tumor”. Regarding `CCOc1ccc(NC(C)=O)cc1`, the outcome is, setting by setting: (Carcinogen: DIHYDROXY-DI-N-PROPYLNITROSAMINE, 53609-64-6, URACIL, 66-22-8, Carcinogen: DIHYDROXY-DI-N-PROPYLNITROSAMINE, 53609-64-6, URACIL, 66-22-8, Doses [Carcinogen]: 0.1% DHPN IN DRINKING WATER AND 3% URACIL IN THE DIET FOR 4 WK, Doses [Promoter]: 0, 2% IN DIET BEGINNING 1 WK POST CARCINOGEN TREATMENT AND CONTINUING FOR 35 WK (STUDY DURATION: 40 WK), Route [Carcinogen]: ORAL, ORAL, Route [Promoter]: ORAL, Species: RAT, Strain/Sex: F344/MALE) “kidney: adenoma or adenocarcinoma; urinary bladder: papilloma”; (Carcinogen: N-BUTYL-N-(4-HYDROXYBUTYL)NITROSAMINE, 3817-11-6, Doses [Carcinogen]: 0.05% IN DRINKING WATER FOR 4 WK, Doses [Promoter]: 0, 2% IN DIET FOR 8 WK AND 3 WK WITH A 4 WK INTERVAL BETWEEN TREATMENTS ADMINISTERED PRIOR TO CARCINOGEN TREATMENT (STUD, Route [Carcinogen]: ORAL, Route [Promoter]: ORAL, Species: MOUSE, Strain/Sex: NON/SHI/MALE) “renal pelvis: carcinoma”; (Carcinogen: N-BUTYL-N-(4-HYDROXYBUTYL)NITROSAMINE, Doses [Carcinogen]: 0.01, 0.05% IN DRINKING WATER FOR 4 WK, Doses [Promoter]: 2.5% IN DIET FOR 30 WK FOLLOWED BY CONTROL DIET FOR 6 WK, Route [Carcinogen]: ORAL, Route [Promoter]: ORAL, Species: RAT, Strain/Sex: WISTAR/MALE) “urinary bladder: papilloma, carcinoma”.

As to `CC(=O)Nc1ccc2c(c1)C(O)c1ccccc1-2` (stereo not drawn), the outcome (Carcinogen: DIETHYLNITROSAMINE, 55-18-5, Doses [Carcinogen]: 200 MG/KG BW IN 0.9% SALINE ONCE, Doses [Promoter]: 0, 0.1 MMOL/KG BW IN POLYETHYLENE GLYCOL FOR 5 D BEGINNING 1 WK POST CARCINOGEN DOSE, 70% HEPATECTOMY PERFORMED 3 D AFTE, Route [Carcinogen]: INTRAPERITONEAL, Route [Promoter]: GAVAGE, Species: RAT, Strain/Sex: SPRAGUE-DAWLEY/MALE) is on record as “liver: hepatocellular carcinoma”. For `CN[C@@H]1C[C@H]2O[C@@](C)([C@@H]1OC)n1c3ccccc3c3c4c(c5c6ccccc6n2c5c31)C(=O)NC4`, for the setting “Carcinogen: 7,12-DIMETHYLBENZ[A]ANTHRACENE, 57-97-6, Doses [Carcinogen]: 100 UG IN 100 µL ACETONE TO THE DORSAL SKIN ONCE, Doses [Promoter]: 0, 10, 50 UG IN 100 µL ACETONE TO THE DORSAL SKIN 2/WK FOR 29 WK BEGINNING 1 WK POST CARCINOGEN DOSE (STUDY DURATION: 30, Doses [Promoter]: 0, 10, 50 UG IN 100 µL ACETONE TO THE DORSAL SKIN 2/WK FOR 29 WK BEGINNING 1 WK POST CARCINOGEN DOSE (STUDY DURATION: 30, Route [Carcinogen]: DERMAL, Route [Promoter]: DERMAL, Species: MOUSE, Strain/Sex: CD-1/FEMALE”, the outcome was “skin: tumor”.
